Assays:
Shigella dysenteriae = assay: Filtering paper agar diffusion bacteriostatic test against Shigella dysenteriae; assay type: cell-based; conditions: 50 μL on 0.6 cm filter paper, extract 1 mg/10 μL, positive control 1 mg/mL, MH plate, 37° C., 16-20 h
Klebsiella pneumoniae = assay: Filtering paper agar diffusion bacteriostatic test against Klebsiella pneumoniae; conditions: 50 μL on 0.6 cm filter paper, extract 1 mg/10 μL, positive control 1 mg/mL, MH plate, 37° C., 16-20 h

With `NC[C@H]1O[C@H](O[C@H]2[C@H](O)[C@@H](O[C@H]3O[C@H](CO)[C@@H](O)[C@H](N)[C@H]3O)[C@H](N)C[C@@H]2N)[C@H](O)[C@@H](O)[C@@H]1O` [Kanamycin, kanamycin] the “size of bacteriostatic ring, mean” value (Shigella dysenteriae; mean of 3 measurements) was 23.7 mm, the “size of bacteriostatic ring” value (Shigella dysenteriae; the first time) was 24 mm and the “size of bacteriostatic ring” value (Shigella dysenteriae; the second time) was 24 mm. The “size of bacteriostatic ring” value (Shigella dysenteriae; the third time) was 23 mm, the “size of bacteriostatic ring, mean” value (Klebsiella pneumoniae; mean of 3 measurements) was 19.7 mm and the “size of bacteriostatic ring” value (Klebsiella pneumoniae; the first time) was 20 mm. For the same compound, the “size of bacteriostatic ring” value (Klebsiella pneumoniae; the second time) was 18 mm and the “size of bacteriostatic ring” value (Klebsiella pneumoniae; the third time) was 21 mm.
